From paper PMC6884555, “Simultaneous measurement of p53:Mdm2 and p53:Mdm4 protein-protein interactions in whole cells using fluorescence labelled foci” (Scientific Reports, 2019)
Entries after “also recorded” stand apart in the source; their conditions may differ. Where two headings read alike, the source gives them in different places.

How the values were obtained:
[1] = target: T1, Mdm4:p53 (Homo sapiens, UniProt O15151); test: Bimodal FLUOPPI Mdm4:p53 PPI assay (pre-mixed stably transfected CHO-K1 cells, high-content imaging); assay type: cell-based; settings: bimodal system; both treatment time points
T1 construct: the p53 (1–70) and Mdm4 (1–112) PPI was then cloned and fused to the FP and ASH tags
T1 sequence (O15151 1-112): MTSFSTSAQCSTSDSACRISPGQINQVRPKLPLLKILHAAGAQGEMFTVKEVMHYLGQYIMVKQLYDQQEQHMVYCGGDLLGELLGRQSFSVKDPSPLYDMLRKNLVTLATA
Method: Separate CHO-K1 lines stably expressing either Ash-p53:AG-Mdm2 or Ash-p53:MR-Mdm4 Fluoppi PPI pairs were established and maintained independently. To enable bimodal measurement both cell lines were pre-mixed in equal proportions and then used to seed 96 well plates for compound analysis. […] Plates were incubated overnight and cells were treated with PPI modulating drugs. […] Cells were also processed using a nuclear morphology filter. […] A minimum number of 500 foci were used to determine this value. Dose curves for each compound were then derived and used to calculate a corresponding IC50 value.
Two stable cell lines, 1A7-1 and 1B7-11 were mixed equally and seeded into poly-D-lysine black-wall 96-well plates (Corning) at a density of 20,000 cells/well and incubated for 24 hours at 37 °C in a 5% CO2 atmosphere. […] Green (AG), red (MR) and blue (Hoechst33342) or far-red (Draq5) fluorescence images were used to monitor p53-MDM2, p53-MDM4 and nuclei, respectively. […] To remove dead cells from analysis, only cells with a “nuclei roundness” score of more than 0.75 were counted. FLUOPPI values were calculated by dividing the total green or red fluorescence intensity of puncta by the number of AG-positive nuclei or MR-positive nuclei, respectively. […]

[2] = target: T2, Mdm4:p53 (Homo sapiens, UniProt O15151); test: NanoBIT Mdm4:p53 PPI assay (transiently transfected CHO-K1 cells); assay type: cell-based; settings: NanoBIT Mdm4:p53 (IC50, µM), small molecules, 10% (v/v) FCS
T2 sequence (O15151 1-490): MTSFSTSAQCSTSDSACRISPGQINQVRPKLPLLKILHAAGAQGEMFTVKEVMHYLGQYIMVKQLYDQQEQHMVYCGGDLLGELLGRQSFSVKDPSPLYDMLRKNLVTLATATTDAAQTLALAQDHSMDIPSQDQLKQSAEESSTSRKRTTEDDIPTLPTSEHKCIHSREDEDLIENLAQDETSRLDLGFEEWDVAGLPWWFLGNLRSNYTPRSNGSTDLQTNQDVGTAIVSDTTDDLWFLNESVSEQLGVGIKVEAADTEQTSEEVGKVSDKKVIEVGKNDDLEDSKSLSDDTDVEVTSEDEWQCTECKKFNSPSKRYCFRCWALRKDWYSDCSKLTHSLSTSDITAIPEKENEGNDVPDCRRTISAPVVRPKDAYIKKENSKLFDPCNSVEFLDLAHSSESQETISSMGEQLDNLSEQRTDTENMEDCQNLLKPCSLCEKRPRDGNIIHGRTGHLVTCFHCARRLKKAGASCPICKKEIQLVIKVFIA
Method: When LgBiT and SmBiT are optimally fused to two interacting proteins, in this case full-length Mdm2 and full-length p53, they will be brought sufficiently close to each other that they will reform the active luciferase and generate a luminescence signal.
For transient transfection experiments, 24 hours prior to transfection CHO cells were seeded at a cell density of 300,000 or 1200,000 cells respectively per well of a 6 well plate (ThermoFisher Scientific). […] After a 24 hour incubation, medium was removed and cells were washed with PBS saline. Transfected CHO-1 cells were trypsinised and re-suspended in Opti-MEM media with 0% FCS. […] 25 μl of a 20-fold dilution of Nano-Glo live cell substrate (Promega) in Nano-Glo dilution buffer (PROMEGA) was added to each well and the plate shaken for 1 min at 22 °C and luminescence assessed after additional 50 minutes as described previously[43]. All luminescence assay were carried out in triplicate and luciferase activity for each well was measured by Envision Multilabel plate reader (PerkinElmer). […]
Curve-fitting was carried out using Prism 4.0 (GraphPad). a was always constrained to the experimental value determined using the 1% DMSO (v/v) experimental control. After curve fitting the value determined for d was then verified to be in close agreement with the plateau of the titration.

[3] = tested on: CHO-K1 cells; test: LDH release assay (CytoTox); assay type: cell-based, Chinese hamster; settings: Cricetulus griseus
[4] = tested on: p53:Mdm2 interaction; settings: read-out: IC50, fluorescence polarization assay; cited from earlier work
[5] = tested on: CHO-K1 cells; test: cells; settings: Cricetulus griseus, read-out: Viability (IC50, µM)
[6] = target: T3, ASH-p53:AG-Mdm2 (Homo sapiens, UniProt Q00987); test: Reversibility of FLUOPPI foci, transiently transfected ASH-p53:AG-Mdm2 CHO-K1 cells; assay type: cell-based
T3 construct: all eight possible combinations of p53 (1–70) and Mdm2 (1–119) were fused
T3 sequence (Q00987 1-119, looked up): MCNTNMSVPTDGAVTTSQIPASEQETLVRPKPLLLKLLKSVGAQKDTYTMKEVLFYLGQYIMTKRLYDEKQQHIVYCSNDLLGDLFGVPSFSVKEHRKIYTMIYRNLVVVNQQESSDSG
Method: All 8 possible interactions pairs for the Mdm2:p53 PPI were then co-expressed in CHO-K1 cells and then analysed for foci formation 24 hours post-transfection (Fig. 1B). To eliminate the possibility of non-specific interactions between the expression constructs giving rise to foci formation, negative control experiments were performed between the AG fluorescent tagged constructs and the non-fluorescent oligomerizing tag (ASH) by itself (Fig. 1C).
24 hours prior to transfection CHO-K1 cells were seeded at a cell density of 800,000 cells respectively per well of a 6 well plate (ThermoFisher Scientific). […] After a 24 hour incubation, medium was removed and cells were washed with PBS saline. Transfected CHO-K1 cells were trypsinised and re-suspended in Nutrient Mixture F-12 Ham (Ham's F-12) media (Sigma-Aldrich) supplemented with 10% FCS. Cells were then spun down at 1000 rpm for 5 minutes at room temperature. Supernatant was then discarded and cells re-suspended to a density of 200,000 cells per ml in Ham's F-12 media supplemented with 10% FCS. 100 μl of the resulting cell suspension was added to the wells of a black clear bottom 96-well plate. After a 24 hours incubation, the cell medium was replaced with fresh Ham's F-12 medium containing the indicated concentration of small molecule or stapled peptide and the stated FCS concentration. Final concentration of DMSO was 1% (v/v).

[7] = tested on: CHO-K1 cells
[8] = CHO-K1, 1 h, read-out: LDH Release (EC50, µM)

Row | Structure (SMILES) | inhibition of the p53:Mdm4 FLUOPPI PPI (in words) [1] | IC50 ([2]; 1 hour treatment) [µM] | IC50 ([2]; 24 hour treatment) [µM] | EC50 [3, 8] [µM] | EC50 ([3]; CHO-K1, 4 h, read-out: Normalized LDH release, value printed beside curve) [µM] | IC50 [4] [µM] | IC50 ([5]; CHO-K1, 1 h) [µM] | IC50 ([5]; CHO-K1, 24 h) [µM] | disruption of Mdm2:p53 fluorescent foci (in words) [6] | effect on cellular viability (in words) [7] | concentration with significant effects on cellular viability (arbitrarily defined as >25%) ([7]; Chinese hamster) [µM]
1 | CC(C)(C)C[C@@H]1N[C@@H](C(=O)N[C@H]2CC[C@H](O)CC2)[C@H](c2cccc(Cl)c2F)[C@]12C(=O)Nc1cc(Cl)ccc12 [MI-773] | negligible effect | 10.2 ± 1.6 | 2.7 | 30 ± 6.2 | 30.6 ± 6.2 | 0.00088 |  |  |  |  | 
2 | COc1ccc(C2=N[C@@H](c3ccc(Cl)cc3)[C@@H](c3ccc(Cl)cc3)N2C(=O)N2CCNC(=O)C2)c(OC(C)C)c1 [Nutlin 3A] |  |  |  | 35.7 ± 6.2 |  |  | 34 ± 7 | 28.5 | disrupted; also recorded: disruption of the fluorescent foci | significant decreases in cellular viability | > 25
